This note sets out measurements from patent EP0172632B1, “Benzopyrano[4,3,2-cd]indazole compounds, processes for their production and pharmaceutical compositions comprising the compounds” (WARNER-LAMBERT COMPANY, priority 1984, dated 1986).

Structures can show the parent of a compound that is named as a salt.

The subject of one test is HCT-8 cells. Nature of the test: in vitro proliferating human colon adenocarcinoma (HCA) cell screen. Conditions: 60 to 65 hours with compound, 50% inhibition of growth, read-out: HCA-4 in vitro ID50. The class given is cell-based. The procedure:
One test protocol is the in vitro proliferating human colon adenocarcinoma (HCA) cell screen. In this test, HCT-8 cells (HCA cell line received from Yale University) are trypsinized using trypsin-EDTA. A single cell suspension is achieved by passing the cells through a 26 gauge needle with a 20 cc syringe. A cell suspension is prepared using RPMI 1640 + 10% FCS + 50 µg/ml gentamicin sulfate with a cell concentration of approximately 30,000 cells/ml. The cell suspension is dispensed in Linbro 24-well plates; 1 ml/well. The plates are incubated for approximately 48 hours at 37°C in a 5% CO2 atmosphere. At this time test compounds are added in the appropriate concentration. Five µl of the 200 µg/ml stock solution is added to each well in a primary test. Ten ul of the appropriate dilution is added to each well for the titration test. The plates are reincubated an additional 60 to 65 hours at 37°C in a 5% C02 atmosphere. The cells are lysed using a mix of cationic surfactant, glacial acetic acid, and sodium chloride. Two ml of the lysed cell suspension from each well is added to 8 ml of diluent. The number of nuclei is determined using a Coulter counter (ZBI model), and a percent growth for each drug concentration is calculated. From this, an IDso (molar concentration of compound that results in 50% inhibition of growth) is determined.

A further test has as its system L1210 cells. Nature of the test: L1210 in vitro cell growth inhibition. It counts as cell-based. Conditions: Mus musculus, 72 h; L1210 murine leukemia cells, three days incubation, 50% inhibition of growth; read-out: L1210 in vitro ID50. The procedure: Another test protocol uses L1210 cells, a murine leukemia cell line, grown in RPMI 1640 supplemented with 5% fetal bovine serum and gentamicin ([…]). Drug dilutions are prepared in the appropriate solvent and 20 µl of each dilution are added to 24-well Linbro tissue culture plates, followed by the addition of 2.0 ml of cell suspension containing 3 x 10^4 cells per ml. Solvent and medium controls are included in each test. After incubation at 37°C for three days in 5% CO2, the contents of each well are removed and the cells counted in a ZBI Counter counter. Percent growth are calculated relative to the controls and the levels of drug activity are expressed as ID50 in moles per liter.

The test system of test [1] is lymphocytic leukemia P388. Nature of the test: in vivo lymphocytic leukemia P388 test. As to conditions: Mus musculus, P388, ip, 120 h, mice, survival time treated/control, read-out: P388 in vivo T/C×100; for response vs control in vivo at 50 mg/kg: Dose 50 mg/kg intraperitoneally once daily for five days; for response vs control in vivo at 12.5 mg/kg: Dose 12.5 mg/kg intraperitoneally once daily for five days; for response vs control in vivo at 25 mg/kg: Dose 25 mg/kg intraperitoneally once daily for five days; for response vs control in vivo at 6.25 mg/kg: Dose 6.25 mg/kg intraperitoneally once daily for five days. On the procedure:
Another test protocol is the in vivo lymphocytic leukemia P388 test. The animals used are either male or female CD2F, mice. There are six or seven animals per test group. The tumor transplant is by intraperitoneal injection of dilute ascitic fluid containing cells of lymphocytic leukemia P388. The test compounds are administered intraperitoneally once daily for five consecutive days at various doses following tumor inoculation. The animals are weighed and survivors are recorded on a regular basis for 30 days. A compound is designated "toxic" if, at a given dose, all animals died prior to four days after the first injection of drug. A ratio of survival time for treated (T)/control (C) animals is calculated. A criterion for efficacy is a ratio T/C times 100 greater than or equal to 125. See Cancer Chemotherapy Reports, Part 3, 3, 1 (1972) for a comprehensive discussion of the protocol.

The subject of test [2] is Streptococcus faecalis 05045. Nature of the test: in vitro antibacterial/antifungal (ABF) agar-disk diffusion assay. As to conditions: Enterococcus faecalis, AM-09 medium, read-out: ABF Zone Diameter (Conc. in mg/ml) S. Fae-calis; for zone of inhibition at 500 µg/mL: Conc. .5 mg/ml. The class given is cell-based. The procedure:
(§1) Still another test protocol is the in vitro antibacterial/antifungal (ABF) test. Compounds are tested for antimicrobial activity in an agar-disk diffusion assay, a standard microbiological technique for testing antibiotics. After incubation of each culture with a test compound, a zone of inhibition is determined. The zone diameter (mm) of active compounds ranges from a minimum of 13.5 mm to as high as 60 mm, with a greater diameter reflecting higher activity. For convenience, values are reported for two gram-negative bacteria (Aerobacter aerogenes 0126 and Escherichia coli 04863), two gram-positive bacteria (Bacillus subtilis 04555 and Streptococcus faecalis 05045 utilizing AM-09 medium), and one mycelial fungus (Penicillium avellaneum M2988).
(In general: In agar diffusion tests the substance spreads into inoculated agar from a disc or well.)

The subject of a further test is Bacillus subtilis 04555. Described as above. Conditions: read-out: ABF Zone Diameter (Conc. in mg/ml) B. Sub-tilis; for zone of inhibition at 500 µg/mL: Conc. .5 mg/ml. The class given is cell-based. The procedure:
as §1

The test system of test [3] is Penicillium avellaneum M2988. Described as above. It counts as cell-based. Conditions: Hamigera avellanea, read-out: ABF Zone Diameter (Conc. in mg/ml) P. Avell-aneum; for zone of inhibition at 3000 µg/mL: Conc. 3 mg/ml. On the procedure: as §1
The test system of another test is Streptococcus pneumoniae. Nature of the test: in vitro antibacterial (ABMF) microdilution susceptibility test. It counts as cell-based. As to conditions: Mueller-Hinton broth microdilution, 37°C, 16-24 hours, read-out: ABMF Minimal Inhibitory Concentration (µ/ml) S. pneum. The text has this:
(§2) Still another test protocol is the in vitro antibacterial (ABMF) test which is a recognized standard microdilution susceptibility procedure in Mueller-Hinton broth against Gram-positive and Gram-negative bacterial test organisms. The procedure is a modification of a state-of-the-art procedure reported in Manual of Clinical Microbiology, Lennette, E. H., ed., by Barry, A. L. and C. Thornsberry at pages 463-474 and by Gavan, T. L. and A. L. Barry at pages 459―462, American Society for Microbiology, Washington, 1980.
(§3) In the test, a given bacterial culture is used to inoculate individual test wells of microdilution trays containing growth medium and test compound, the latter in a microdilution series: 1000, 333.111, 37,12, 4, 1.4, and 0.46 micrograms per milliliter. […] For convenience, values are reported for Escherichia coli, Corynebacterium Sp. ATCC 21698, Salmonella typhimurium, Streptococcus pneumoniae, and Rhodotorula aurantiaca.
(Dilution methods test growth across graded concentrations, often in twofold steps.)

Another test has as its system Escherichia coli. The test is described as above. It counts as cell-based. As to conditions: Mueller-Hinton broth microdilution, 37°C, 16-24 hours, read-out: ABMF Minimal Inhibitory Concentration (µ/ml) E. coli.
Excerpt: as §2, §3

For test [4], the system named is Corynebacterium Sp. ATCC 21698. The test is described as above. The class given is cell-based. Conditions: ATCC21698, Mueller-Hinton broth microdilution, 37°C, 16-24 hours, read-out: ABMF Minimal Inhibitory Concentration (µ/ml) Coryn. sp.
Excerpt: as §2, §3

Another test has as its system Rhodotorula aurantiaca. Described as above. Conditions: Buckleyzyma aurantiaca; Mueller-Hinton broth microdilution, 37°C, 16-24 hours; read-out: ABMF Minimal Inhibitory Concentration (µ/ml) R. aurant. It counts as cell-based.
Excerpt: as §2, §3

In another test the test system is Salmonella typhimurium. Described as above. The class given is cell-based. Conditions: Salmonella enterica, Mueller-Hinton broth microdilution, 37°C, 16-24 hours, read-out: ABMF Minimal Inhibitory Concentration (µ/ml) S. typh.
Excerpt: as §2, §3

As for `CCN(CC)CCn1nc2c3c(c([N+](=O)[O-])ccc31)Oc1ccccc1-2` [Example 1, N,N-Diethyl-5-nitro-2H-[1] benzopyrano[4,3,2-cd]indazole-2-ethanamine], the IC50 was determined as 1000 nM in the test on HCT-8 cells and 1900 nM in the test on L1210 cells. In test [1] (Dose 100 mg/kg intraperitoneally once daily for five days), the response vs control in vivo at 100 mg/kg came to 138%. Besides, in test [1] (Dose 200 mg/kg intraperitoneally once daily for five days), the response vs control in vivo at 200 mg/kg was found to be 211%. Also, the zone of inhibition at 500 µg/mL came to 15 mm in test [2] and 14 mm in the test on Bacillus subtilis 04555. Further, the zone of inhibition at 3000 µg/mL in [3] was 0 mm.

For `O=[N+]([O-])c1ccc2c3c(nn2CCNCCO)-c2ccccc2Oc13` [Example 2, 2-[[2-(5-Nitro-2H-[1]benzopyrano[4,3,2-cd]-indazol-2-yl)ethyl]amino]ethanol, monohydrochloride], the IC50 was found to be 500 nM in the test on HCT-8 cells and 400 nM in the test on L1210 cells. The response vs control in vivo at 50 mg/kg in test [1] was determined as 141%. Further, the zone of inhibition at 500 µg/mL in test [2] was 17 mm. Further, the zone of inhibition at 100 µg/mL in the test with Bacillus subtilis 04555 (Conc. .1 mg/ml) is 17 mm; in test [3] (Conc. .1 mg/ml), 19 mm.

As for `CCN(CC)CCn1nc2c3c(c(N)ccc31)Oc1ccccc1-2` [Example 3, 5-Amino-N,N-diethyl-2H-[1]benzopyrano[4,3,2-cd]indazol-2-ethanamine], the IC50 came to 2400 nM with HCT-8 cells and 1300 nM with L1210 cells.

Take `CCN(CC)CCn1nc2c3c(c(NCCN)ccc31)Oc1ccccc1-2` [Example 4, N-[2-[2-(Diethylamino)ethyl]-2H-[1]benzopyrano[4,3,2-cd]indazol-5-yl]ethanediamine, trihydrobromide, dihydrate]: the IC50 in the test with HCT-8 cells came to 160 nM; in the test on L1210 cells, 80 nM. The response vs control in vivo at 12.5 mg/kg in test [1] is 174%. The response vs control in vivo at 25 mg/kg in test [1] was 216%. Further, the zone of inhibition at 3000 µg/mL in [2] (Conc. 3 mg/ml) is 16 mm; in test [3], 0 mm. Moreover, the zone of inhibition at 500 µg/mL in the test on Bacillus subtilis 04555 is 14 mm.

Regarding `O=[N+]([O-])c1ccc2c3c(nn2CCNCCO)-c2cc(O)ccc2Oc13` [Example 15, 2-[2-[(2-Hydroxyethyl)amino]ethyl]-5-nitro-2H-[1]benzopyrano[4,3,2-cd]indazol-9-01, hydrochloride], the MIC in the test with Streptococcus pneumoniae was 1.4 µg/mL; in the test with Escherichia coli, greater than 0.46 µg/mL; in [4], 1.4 µg/mL; with Rhodotorula aurantiaca it was 1000 µg/mL; with Salmonella typhimurium it was 12.3 µg/mL. In addition, in the test with L1210 cells, the IC50 was found to be 15 nM. Besides, in [1], the response vs control in vivo at 12.5 mg/kg was determined as 190%. The response vs control in vivo at 25 mg/kg in test [1] stood at 218%. In test [1], the response vs control in vivo at 50 mg/kg came out at 230%.

As to `Cl.Nc1ccc2c3c(nn2CCNCCO)-c2cc(O)ccc2Oc13` [Example 16, 5-Amino-2-[2-[(2-hydroxyethyl)amino]ethyl]-2H-[1]benzopyrano[4,3,2-cd]indazol-9-ol, hydrochloride], the MIC was 37 µg/mL in the test on Streptococcus pneumoniae; 4.1 µg/mL in the test on Escherichia coli; 12.3 µg/mL in [4]; greater than 1000 µg/mL in the test with Rhodotorula aurantiaca; 37 µg/mL in the test on Salmonella typhimurium. Besides, the IC50 in the test on L1210 cells turned out to be 120 nM. The response vs control in vivo at 6.25 mg/kg in test [1] was 165%. Also, the response vs control in vivo at 12.5 mg/kg in test [1] turned out to be 200%. Further, the response vs control in vivo at 25 mg/kg in test [1] stood at 260%.

As for `O=C(CNCCO)Nc1ccc2c3c(nn2CCNCCO)-c2cc(O)ccc2Oc13` [Example 17, 2-[2-[(2-Hydroxyethyl)amino]ethyl]-9-hydroxy-2H-[1]benzopyrano[4,3,2-cd]indazol-5-yl]-2-[(2-hydroxyethyl)amino]acetamide, hydrochloride], the MIC is greater than 1000 µg/mL in the test with Streptococcus pneumoniae; 1000 µg/mL with Escherichia coli; 333 µg/mL in test [4]; 1000 µg/mL with Rhodotorula aurantiaca; greater than 1000 µg/mL with Salmonella typhimurium. Further, in the test on L1210 cells, the IC50 worked out at 1700 nM. The response vs control in vivo at 60 mg/kg in test [1] (Dose 60 mg/kg intraperitoneally once daily for five days) stood at 134%. Also, the response vs control in vivo at 120 mg/kg in test [1] (Dose 120 mg/kg intraperitoneally once daily for five days) amounted to 142%. Further, the response vs control in vivo at 240 mg/kg in [1] (Dose 240 mg/kg intraperitoneally once daily for five days) was found to be 184%.

`OCCNCCNc1ccc2c3c(nn2CCNCCO)-c2cc(O)ccc2Oc13` [Example 18, 2-[2[(2-Hydroxyethyl)amino]ethyl]-5-[[2-[(2-hydroxyethyl)amino]ethyl]amino-2H [1]benzopyrano[4,3,2-cd]indazol-9-ol, hydrochloride]: the MIC was 333 µg/mL in the test with Streptococcus pneumoniae; 111 µg/mL in the test with Escherichia coli; 37 µg/mL in test [4]; greater than 1000 µg/mL in the test with Rhodotorula aurantiaca; 1000 µg/mL in the test with Salmonella typhimurium. In the test with L1210 cells, the IC50 was 130 nM. Moreover, in [1], the response vs control in vivo at 6.25 mg/kg came to 173%. In addition, the response vs control in vivo at 12.5 mg/kg in test [1] came out at 236%. Moreover, the response vs control in vivo at 25 mg/kg in test [1] amounted to 236%.
